Columns and labels:
[1] = target: T1, FAK (Homo sapiens, UniProt Q05397); assay: FAK-HiBiT Degradation Assay; format: cell-based; details: for DC50: JHH-4-FAK-HiBiT clone d01 cells, two hours incubation, 10-point dose response, 3-fold dilution starting at 1 μM, Nano-Glo HiBiT luminescence, read-out: FAK HiBiT EC50; for FAK HiBiT Ymin: lower limit of the four parameter fit (value A), Ymax derived using DMSO control, JHH-4-FAK-HiBiT cells, two hours
T1 construct: homozygous knock-in of a HiBiT tag (Promega Corporation, Madison, WI) to the C-terminus of the FAK gene in its natural genomic locus; endogenous in cells; host or cells: JHH-4-FAK-HiBiT clone d01 (CRISPR-Cas9 knock-in at the endogenous locus)
T1 sequence (Q05397 whole entry): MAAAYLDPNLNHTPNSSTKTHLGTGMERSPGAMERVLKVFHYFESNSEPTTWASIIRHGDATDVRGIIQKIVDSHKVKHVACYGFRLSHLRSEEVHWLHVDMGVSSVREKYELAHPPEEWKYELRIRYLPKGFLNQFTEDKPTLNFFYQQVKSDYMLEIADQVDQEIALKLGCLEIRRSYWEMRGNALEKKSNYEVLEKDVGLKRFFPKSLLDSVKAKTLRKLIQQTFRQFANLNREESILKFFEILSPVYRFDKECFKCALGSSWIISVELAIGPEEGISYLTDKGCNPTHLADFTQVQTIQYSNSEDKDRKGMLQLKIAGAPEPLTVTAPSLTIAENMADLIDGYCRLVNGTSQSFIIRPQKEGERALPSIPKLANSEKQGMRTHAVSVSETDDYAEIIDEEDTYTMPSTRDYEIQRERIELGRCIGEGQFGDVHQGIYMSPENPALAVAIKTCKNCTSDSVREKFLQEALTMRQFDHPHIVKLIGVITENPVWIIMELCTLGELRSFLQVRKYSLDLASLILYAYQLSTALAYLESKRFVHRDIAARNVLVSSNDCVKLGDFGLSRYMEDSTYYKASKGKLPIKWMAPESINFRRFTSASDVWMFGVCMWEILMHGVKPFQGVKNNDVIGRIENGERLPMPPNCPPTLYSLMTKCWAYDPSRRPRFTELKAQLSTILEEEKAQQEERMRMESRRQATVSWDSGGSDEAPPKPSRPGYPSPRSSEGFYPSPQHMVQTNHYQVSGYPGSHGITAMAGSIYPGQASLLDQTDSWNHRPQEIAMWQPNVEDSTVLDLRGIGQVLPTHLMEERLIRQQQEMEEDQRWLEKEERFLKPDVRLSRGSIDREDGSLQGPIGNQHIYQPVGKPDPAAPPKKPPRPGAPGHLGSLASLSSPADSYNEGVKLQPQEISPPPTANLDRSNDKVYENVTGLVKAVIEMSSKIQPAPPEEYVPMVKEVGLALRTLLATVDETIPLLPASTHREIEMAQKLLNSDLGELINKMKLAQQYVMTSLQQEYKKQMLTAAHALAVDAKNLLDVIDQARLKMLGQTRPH
Summary of the method: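 JHH-4 cells with homozygous CRISPR knock-in of C-terminal HiBiT on endogenous FAK, treated 2 h at 37 °C with compounds in 10-point 3-fold series from 1 μM. HiBiT lytic luminescence read; EC50 from four-parameter logistic fit, Ymax set by DMSO control, Ymin as lower fit limit.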

[2] = system: CAL-51 cells; assay: CAL-51 Cell Proliferation Assay; format: cell-based; details: for EC50: Homo sapiens, 120 hours incubation, 10-point dose response, 4-fold dilutions starting at 10 μM, Cell-Titer-Glo, read-out: CAL-51 Prolif EC50; for CAL-51 Prolif Ymin: minimal percent of DMSO control observed in the concentrations tested (Ymin-obs), 120 hours
Summary of the method: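 Cells seeded at 350/well in RPMI complete medium onto 10-point, 4-fold compound dilutions from 10 μM (0.1% DMSO), in duplicate, and grown 120 h at 37 °C. CellTiter-Glo luminescence, blank-subtracted and normalised to DMSO, was fitted with a four-parameter logistic to give EC50; Ymin-obs is the lowest observed percent of DMSO control.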

Row | SMILES | DC50 [1] | FAK HiBiT Ymin [1] | EC50 [2] | CAL-51 Prolif Ymin [2]
1 | Cc1cc(OC(C)C)cnc1-c1cc(N2CC(F)C2)nc2c1cnn2Cc1ccc2c(c1)CN(C1CCC(=O)NC1=O)C2=O (centres unmarked) [Example 80, 3-(5-{[6-(3-fluoroazetidin-1-yl)-4-[3-methyl-5-(propan-2-yloxy)pyridin-2-yl]-1H-pyrazolo[3,4-b]pyridin-1-yl]methyl}-1-oxo-2,3-dihydro-1H-isoindol-2-yl)piperidine-2,6-dione] | 9.06 nM | 5.83 | 1.68 nM | 27.48
2 | CN(c1cc(-c2ncc(C(F)(F)F)cc2Cl)c2cnn(Cc3ccc4c(c3)CN([C@H]3CCC(=O)NC3=O)C4=O)c2n1)[C@H]1C[C@H](O)C1 [Example 81, (3S)-3-[5-({4-[3-chloro-5-(trifluoromethyl)pyridin-2-yl]-6-{methyl[(1r,3r)-3-hydroxycyclobutyl]amino}-1H-pyrazolo[3,4-b]pyridin-1-yl}methyl)-1-oxo-2,3-dihydro-1H-isoindol-2-yl]piperidine-2,6-dione] | 9.57 nM | 12.82 | 6.37 nM | 38.16
3 | CCOc1cnc(-c2cc(N3CC(F)C3)nc3c2cnn3Cc2ccc3c(c2)CN([C@H]2CCC(=O)NC2=O)C3=O)c(C)c1 [Example 82, (3S)-3-(5-{[4-(5-ethoxy-3-methylpyridin-2-yl)-6-(3-fluoroazetidin-1-yl)-1H-pyrazolo[3,4-b]pyridin-1-yl]methyl}-1-oxo-2,3-dihydro-1H-isoindol-2-yl)piperidine-2,6-dione] | 9.61 nM | 8.29 | 4.19 nM | 29.74
4 | CN(c1cc(-c2ncc(C(F)(F)F)cc2Cl)c2cnn(Cc3ccc4c(c3)CN([C@H]3CCC(=O)NC3=O)C4=O)c2n1)C1CC(C)(O)C1 (stereo partly drawn) [Example 83, (3S)-3-[5-({4-[3-chloro-5-(trifluoromethyl)pyridin-2-yl]-6-{methyl[(1r,3s)-3-hydroxy-3-methylcyclobutyl]amino}-1H-pyrazolo[3,4-b]pyridin-1-yl}methyl)-1-oxo-2,3-dihydro-1H-isoindol-2-yl]piperidine-2,6-dione] | 10.2 nM | 10.27 | 5.41 nM | 30.14
5 | Cc1cnc(-c2cc(N3CC(F)C3)nc3c2cnn3Cc2ccc3c(c2)CN(C2CCC(=O)NC2=O)C3=O)c(C)c1 (centres unmarked) [Example 85, 3-(5-{[4-(3,5-dimethylpyridin-2-yl)-6-(3-fluoroazetidin-1-yl)-1H-pyrazolo[3,4-b]pyridin-1-yl]methyl}-1-oxo-2,3-dihydro-1H-isoindol-2-yl)piperidine-2,6-dione] | 11.1 nM | 11.71 | 6.82 nM | 35.10
6 | O=C1CCC(N2Cc3cc(Cn4ncc5c(-c6ncccc6Cl)cc(N6CC(F)C6)nc54)ccc3C2=O)C(=O)N1 (centres unmarked) [Example 89, 3-(5-{[4-(3-chloropyridin-2-yl)-6-(3-fluoroazetidin-1-yl)-1H-pyrazolo[3,4-b]pyridin-1-yl]methyl}-1-oxo-2,3-dihydro-1H-isoindol-2-yl)piperidine-2,6-dione] | 13.4 nM | 8.18 | 6.69 nM | 24.94
7 | O=C1CCC(N2Cc3cc(Cn4ncc5c(-c6ncc(Cl)cc6F)cc(N6CC(F)C6)nc54)ccc3C2=O)C(=O)N1 (centres unmarked) [Example 90, 3-(5-{[4-(5-chloro-3-fluoropyridin-2-yl)-6-(3-fluoroazetidin-1-yl)-1H-pyrazolo[3,4-b]pyridin-1-yl]methyl}-1-oxo-2,3-dihydro-1H-isoindol-2-yl)piperidine-2,6-dione] | 13.6 nM | 15.97 | 10.4 nM | 37.96

More lines, main results first:

Row | DC50 [1] | FAK HiBiT Ymin [1] | SMILES | EC50 [2] | CAL-51 Prolif Ymin [2]
8 | 14.1 nM | 8.03 | Cc1cc(C#N)cnc1-c1cc(N2CC(F)C2)nc2c1cnn2Cc1ccc2c(c1)CN(C1CCC(=O)NC1=O)C2=O (centres unmarked) [Example 91, 6-(1-{[2-(2,6-dioxopiperidin-3-yl)-1-oxo-2,3-dihydro-1H-isoindol-5-yl]methyl}-6-(3-fluoroazetidin-1-yl)-1H-pyrazolo[3,4-b]pyridin-4-yl)-5-methylpyridine-3-carbonitrile] | 7.78 nM | 24.52
9 | 15.5 nM | 16.43 | O=C1CCC(N2Cc3cc(Cn4ncc5c(-c6ncccc6Br)cc(N6CC(F)C6)nc54)ccc3C2=O)C(=O)N1 (centres unmarked) [Example 93, 3-(5-{[4-(3-bromopyridin-2-yl)-6-(3-fluoroazetidin-1-yl)-1H-pyrazolo[3,4-b]pyridin-1-yl]methyl}-1-oxo-2,3-dihydro-1H-isoindol-2-yl)piperidine-2,6-dione] | 9.36 nM | 36.26
10 | 18.3 nM | 23.92 | CN(c1cc(-c2ncc(C(F)(F)F)cc2Cl)c2cnn(Cc3ccc4c(c3)CN(C3CCC(=O)NC3=O)C4=O)c2n1)C1CCOCC1 (centres unmarked) [Example 94, 3-[5-({4-[3-chloro-5-(trifluoromethyl)pyridin-2-yl]-6-[methyl(oxan-4-yl)amino]-1H-pyrazolo[3,4-b]pyridin-1-yl}methyl)-1-oxo-2,3-dihydro-1H-isoindol-2-yl]piperidine-2,6-dione] | 5.52 nM | 47.74
11 | 19.9 nM | 22.15 | O=C1CC[C@H](N2Cc3cc(Cn4ncc5c(-c6ccc(F)cc6F)cc(N6CC[C@H](O)C6)nc54)ccc3C2=O)C(=O)N1 [Example 95, (3S)-3-(5-{[4-(2,4-difluorophenyl)-6-[(3S)-3-hydroxypyrrolidin-1-yl]-1H-pyrazolo[3,4-b]pyridin-1-yl]methyl}-1-oxo-2,3-dihydro-1H-isoindol-2-yl)piperidine-2,6-dione] | 13.5 nM | 46.68
12 | 20 nM | 17.46 | CCOc1ccc(-c2cc(N3CC[C@](C)(O)C3)nc3c2cnn3Cc2ccc3c(c2)CN(C2CCC(=O)NC2=O)C3=O)c(Cl)c1 (stereo partly drawn) [Example 96, 3-(5-{[4-(2-chloro-4-ethoxyphenyl)-6-[(3S)-3-hydroxy-3-methylpyrrolidin-1-yl]-1H-pyrazolo[3,4-b]pyridin-1-yl]methyl}-1-oxo-2,3-dihydro-1H-isoindol-2-yl)piperidine-2,6-dione] | 1.88 nM | 45.73
13 | 22.9 nM | 12.95 | COc1cnc(-c2cc(N3CC(F)C3)nc3c2cnn3Cc2ccc3c(c2)CN(C2CCC(=O)NC2=O)C3=O)c(C)c1 (centres unmarked) [Example 97, 3-(5-{[6-(3-fluoroazetidin-1-yl)-4-(5-methoxy-3-methylpyridin-2-yl)-1H-pyrazolo[3,4-b]pyridin-1-yl]methyl}-1-oxo-2,3-dihydro-1H-isoindol-2-yl)piperidine-2,6-dione] | 14.4 nM | 38.61
14 | 24.4 nM | 32.32 | O=C1CCC(N2Cc3cc(Cn4ncc5c(-c6ncc(C(F)(F)F)cc6Cl)cc(NC6CC6)nc54)ccc3C2=O)C(=O)N1 (centres unmarked) [Example 98, 3-[5-({4-[3-chloro-5-(trifluoromethyl)pyridin-2-yl]-6-(cyclopropyl-amino)-1H-pyrazolo[3,4-b]pyridin-1-yl}methyl)-1-oxo-2,3-dihydro-1H-isoindol-2-yl]piperidine-2,6-dione] | 3.66 nM | 39.93
15 | 25.3 nM | 13.33 | CN(c1cc(-c2ncc(C(F)(F)F)cc2Cl)c2cnn(Cc3ccc4c(c3)CN([C@H]3CCC(=O)NC3=O)C4=O)c2n1)C1COC1 [Example 99, (3S)-3-[5-({4-[3-chloro-5-(trifluoromethyl)pyridin-2-yl]-6-[methyl(oxetan-3-yl)amino]-1H-pyrazolo[3,4-b]pyridin-1-yl}methyl)-1-oxo-2,3-dihydro-1H-isoindol-2-yl]piperidine-2,6-dione] | 117 nM | 36.78
16 | 26.8 nM | 9.53 | O=C1CCC(N2Cc3cc(Cn4ncc5c(-c6ncc(F)cc6Cl)cc(N6CC[C@H](O)C6)nc54)ccc3C2=O)C(=O)N1 (stereo partly drawn) [Example 100, 3-(5-{[4-(3-chloro-5-fluoropyridin-2-yl)-6-[(3S)-3-hydroxypyrrolidin-1-yl]-1H-pyrazolo[3,4-b]pyridin-1-yl]methyl}-1-oxo-2,3-dihydro-1H-isoindol-2-yl)piperidine-2,6-dione] | 13.4 nM | 29.27
17 | 29.6 nM | 12.65 | C[C@]1(O)CCN(c2cc(-c3ncc(C(F)(F)F)cc3Cl)c3cnn(Cc4ccc5c(c4)CN([C@H]4CCC(=O)NC4=O)C5=O)c3n2)C1 [Example 102, (3S)-3-[5-({4-[3-chloro-5-(trifluoromethyl)pyridin-2-yl]-6-[(3S)-3-hydroxy-3-methylpyrrolidin-1-yl]-1H-pyrazolo[3,4-b]pyridin-1-yl}methyl)-1-oxo-2,3-dihydro-1H-isoindol-2-yl]piperidine-2,6-dione] | 10.9 nM | 35.36
